Measurements from ChEMBL document CHEMBL5360663, “Discovery of a Novel Photocaged PI3K Inhibitor Capable of Real-Time Reporting of Drug Release” (ACS Med Chem Lett, 2023).
Calls of active or inactive are those of the source. No cut-off for these calls is given here.

Tests used:
[1] = molecular target: Phosphatidylinositol 4,5-bisphosphate 3-kinase catalytic subunit alpha isoform (Homo sapiens, UniProt P42336); assay: Inhibition of PI3Kalpha (unknown origin) using PIP2 as substrate in presence of ATP by Kinase-Glo assay
Phosphatidylinositol 4,5-bisphosphate 3-kinase catalytic subunit alpha isoform, sequence (P42336 whole entry, canonical isoform): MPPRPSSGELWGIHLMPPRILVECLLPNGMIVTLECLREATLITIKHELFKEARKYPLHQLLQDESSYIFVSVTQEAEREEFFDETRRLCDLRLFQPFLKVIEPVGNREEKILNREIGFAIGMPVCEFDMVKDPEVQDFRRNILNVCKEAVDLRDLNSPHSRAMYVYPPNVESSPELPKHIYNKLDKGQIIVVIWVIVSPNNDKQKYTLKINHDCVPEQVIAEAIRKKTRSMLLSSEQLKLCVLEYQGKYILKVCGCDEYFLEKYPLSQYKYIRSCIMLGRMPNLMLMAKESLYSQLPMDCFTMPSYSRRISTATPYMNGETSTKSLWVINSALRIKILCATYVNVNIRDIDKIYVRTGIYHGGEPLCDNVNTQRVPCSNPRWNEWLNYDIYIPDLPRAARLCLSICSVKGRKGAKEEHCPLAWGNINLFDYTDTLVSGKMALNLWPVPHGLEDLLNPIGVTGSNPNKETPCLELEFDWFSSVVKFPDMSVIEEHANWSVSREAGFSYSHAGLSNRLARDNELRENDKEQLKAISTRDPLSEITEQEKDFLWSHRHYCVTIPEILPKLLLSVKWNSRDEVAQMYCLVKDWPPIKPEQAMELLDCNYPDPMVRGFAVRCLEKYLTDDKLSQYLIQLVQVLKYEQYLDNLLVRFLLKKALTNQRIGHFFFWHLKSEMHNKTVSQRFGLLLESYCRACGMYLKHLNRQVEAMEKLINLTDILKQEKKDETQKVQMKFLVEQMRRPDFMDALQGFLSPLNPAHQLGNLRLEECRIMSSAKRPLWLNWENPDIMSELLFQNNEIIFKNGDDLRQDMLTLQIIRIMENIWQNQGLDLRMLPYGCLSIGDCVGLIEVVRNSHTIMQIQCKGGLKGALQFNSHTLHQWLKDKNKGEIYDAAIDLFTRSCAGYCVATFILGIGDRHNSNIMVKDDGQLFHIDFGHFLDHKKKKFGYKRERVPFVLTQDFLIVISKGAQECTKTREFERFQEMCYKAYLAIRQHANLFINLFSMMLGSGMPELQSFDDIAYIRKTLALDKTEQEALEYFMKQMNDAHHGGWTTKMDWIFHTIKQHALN

[2] = test system: HGC-27; assay: Antiproliferative activity against human HGC-27 cells assessed as inhibition of cell growth measured after 72 hrs by CTG assay; type: functional, cell-based; conditions: HGC-27, 72 h
[3] = Antiproliferative activity against human U373 cells assessed as inhibition of cell growth measured after 72 hrs by CTG assay; type: functional, cell-based; conditions: U373 MG
[4] = test system: U-87 MG; assay: Antiproliferative activity against human U-87 MG cells assessed as inhibition of cell growth measured after 72 hrs by CTG assay; type: functional, cell-based, U-87MG ATCC
[5] = test system: MCF7; assay: Antiproliferative activity against human MCF7 cells assessed as inhibition of cell growth measured after 72 hrs by CTG assay; type: functional, cell-based; conditions: MCF7, 72 h
[6] = test system: SK-MEL-2; assay: Antiproliferative activity against human SK-MEL-2 cells assessed as inhibition of cell growth measured after 72 hrs by CTG assay; type: functional, cell-based; conditions: SK-MEL-2, 72 h
[7] = test system: SK-MEL-5; assay: Antiproliferative activity against human SK-MEL-5 cells assessed as inhibition of cell growth measured after 72 hrs by CTG assay; type: functional, cell-based; conditions: SK-MEL-5, 72 h
[8] = test system: HGC-27; assay: Inhibition of PI3K in human HGC-27 cells assessed as reduction in AKT phosphorylation at S473 residue at 10 nM pre-treated with compound followed by UV irradiation for 5 mins measured after 24 hrs by Western blotting analysis; type: cell-based; conditions: time 1445.0 min
[9] = test system: HGC-27; assay: Inhibition of PI3K in human HGC-27 cells assessed as reduction in S6RP phosphorylation at S240 and 244 residue at 10 nM pre-treated with compound followed by UV irradiation for 5 mins measured after 24 hrs by Western blotting analysis; type: cell-based; conditions: time 1445.0 min
[10] = test system: HGC-27; assay: Inhibition of colony formation in human HGC-27 cells at 10 nM pre-treated with compound followed by UV irradiation for 5 mins measured after 3 days by crystal violet staining based analysis; type: functional, cell-based; conditions: time 4325.0 min
[11] = test system: HGC-27; assay: Antiproliferative activity against human HGC-27 cells assessed as inhibition of cell growth pre-treated with compound followed by UV irradiation for 5 mins measured after 72 hrs by CTG assay; type: functional, cell-based; conditions: HGC-27, light or radiation study
[12] = Antiproliferative activity against human U373 cells assessed as inhibition of cell growth pre-treated with compound followed by UV irradiation for 5 mins measured after 72 hrs by CTG assay; type: functional, cell-based; conditions: U373 MG, light or radiation study
[13] = test system: U-87 MG; assay: Antiproliferative activity against human U-87 MG cells assessed as inhibition of cell growth pre-treated with compound followed by UV irradiation for 5 mins measured after 72 hrs by CTG assay; type: functional, cell-based, U-87MG ATCC; conditions: light or radiation study
[14] = test system: MCF7; assay: Antiproliferative activity against human MCF7 cells assessed as inhibition of cell growth pre-treated with compound followed by UV irradiation for 5 mins measured after 72 hrs by CTG assay; type: functional, cell-based; conditions: MCF7, light or radiation study
[15] = test system: SK-MEL-2; assay: Antiproliferative activity against human SK-MEL-2 cells assessed as inhibition of cell growth pre-treated with compound followed by UV irradiation for 5 mins measured after 72 hrs by CTG assay; type: functional, cell-based; conditions: SK-MEL-2, light or radiation study
[16] = test system: SK-MEL-5; assay: Antiproliferative activity against human SK-MEL-5 cells assessed as inhibition of cell growth pre-treated with compound followed by UV irradiation for 5 mins measured after 72 hrs by CTG assay; type: functional, cell-based; conditions: SK-MEL-5, light or radiation study
[17] = Selectivity ratio of IC50 for antiproliferative activity against human HGC-27 cells to IC50 for antiproliferative activity against human HGC-27 cells in presence of UV irradiation; type: functional
[18] = Selectivity ratio of IC50 for antiproliferative activity against human U373 cells to IC50 for antiproliferative activity against human U373 cells in presence of UV irradiation; type: functional
[19] = Selectivity ratio of IC50 for antiproliferative activity against human U-87 MG cells to IC50 for antiproliferative activity against human U-87 MG cells in presence of UV irradiation; type: functional, U-87MG ATCC
[20] = Selectivity ratio of IC50 for antiproliferative activity against human MCF7 cells to IC50 for antiproliferative activity against human MCF7 cells in presence of UV irradiation; type: toxicity, cell-based; conditions: read-out: Ratio IC50
[21] = Selectivity ratio of IC50 for antiproliferative activity against human SK-MEL-2 cells to IC50 for antiproliferative activity against human SK-MEL-2 cells in presence of UV irradiation; type: functional
[22] = Selectivity ratio of IC50 for antiproliferative activity against human SK-MEL-5 cells to IC50 for antiproliferative activity against human SK-MEL-5 cells in presence of UV irradiation; type: functional
[23] = test system: HGC-27; assay: Photorelease activity in human HGC-27 cells assessed as release of 7-hydroxy-3-(hydroxymethyl)-2H-chromen-2-one incubated for 2 hrs in presence of UV irradiation by confocal microscopic analysis; type: ADME, cell-based; conditions: hgc-27, 2 h, dose 1-10 µM
[24] = test system: HGC-27; assay: Photorelease activity in human HGC-27 cells assessed as release of 7-hydroxy-3-(hydroxymethyl)-2H-chromen-2-one incubated for 2 hrs by confocal microscopic analysis; type: ADME, cell-based; conditions: hgc-27, 2 h
[25] = test system: HGC-27; assay: Photorelease activity in human HGC-27 cells assessed as increase in intracellular fluorescence intensity at 0.4 to 10 uM incubated for 2 hrs in presence of UV irradiation for 5 to 30 mins by fluorescence based microplate reader analysis; type: ADME, cell-based; conditions: hgc-27, 2 h, TDE = time-dependent effect, dose 0.4-10 µM
[26] = test system: HGC-27; assay: Photorelease activity in human HGC-27 cells assessed as increase in intracellular fluorescence intensity incubated for 2 hrs in presence of UV irradiation for 5 to 30 mins by fluorescence based microplate reader analysis; type: ADME, cell-based; conditions: hgc-27, 2 h, dose 0.4-10 µM

Structure (SMILES) | IC50 [1] | IC50 [2] | IC50 [3] | IC50 [4] | IC50 [5] | IC50 [6] | IC50 [7] | inhibition [8] | inhibition [9] | Activity [10] | further results
COc1ncc(-c2cc(OC3CCOCC3)c3ncnc(C)c3c2)cc1N(Cc1cc2ccc(O)cc2oc1=O)S(=O)(=O)c1ccc(F)cc1F | 2.07 nM | 3.9 nM | 25 nM | 11 nM | 295 nM | 130 nM | 190 nM | Active | Active | Active | –
COc1ncc(-c2cc(OC3CCOCC3)c3ncnc(C)c3c2)cc1NS(=O)(=O)c1ccc(F)cc1F | 0.17 nM | 1.8 nM | 57 nM | 50 nM | 282 nM | 190 nM | 65 nM | Active | Active | Active | –
COc1cc(COc2ccc3cc(CN(c4cc(-c5cc(OC6CCOCC6)c6ncnc(C)c6c5)cnc4OC)S(=O)(=O)c4ccc(F)cc4F)c(=O)oc3c2)c([N+](=O)[O-])cc1OC | 18.9 nM | 701 nM | > 10000 nM | 3260 nM | > 10000 nM | 2810 nM | 6560 nM | Active | Active | Active | IC50 [11]: 3.7 nM; IC50 [12]: 46 nM; IC50 [13]: 52 nM; IC50 [14]: 428 nM; IC50 [15]: 143 nM; IC50 [16]: 434 nM; Ratio IC50 [17]: 189; Ratio IC50 [18]: >217; Ratio IC50 [19]: 63; selectivity ratio [20]: > 23; Ratio IC50 [21]: 20; Ratio IC50 [22]: 15; Activity [23]: Dose-Dependent Effect; Activity [24]: Not Active; Activity [25]: Tde; Activity [26]: Dose-Dependent Effect
